Test results: patent US9908897B2, “Spirocyclic derivatives” (CHRONOS THERAPEUTICS LIMITED, priority 2014, dated 2018)

Columns and labels:
[1] = molecular target: human norepinephrine transporter (NET) (Homo sapiens (Human), UniProt P23975); test: Scintillation Proximity Assay (SPA) competition binding, human NET; conditions: recombinant hNET-CHO membranes, [3H]nisoxetine
Description: (§1) Measure of Affinity to the Human Transporters DAT, NET and SERT
(§2) Affinity is expressed in terms of inhibition constant (Ki) of the compounds of the invention for DAT, NET and SERT, and it is typically calculated from the IC50 values obtained in competition experiments using Cheng and Prusoff equation (Cheng and Prusoff, Biochem. Pharmacol. 22:3099, 1973). In the context of the present invention pKi values (corresponding to the antilogarithm of Ki) are used instead of Ki; pKi are only estimated to be accurate to about 0.3 log unit.
(§3) Scintillation Proximity Assay (SPA) for Human DAT, NET and SERT Binding
(§4) Chinese Hamster Ovary (CHO) cells stably expressing either human DAT (hDAT-CHO) or human NET (hNET-CHO) or human SERT (hSERT-CHO) are used for the membrane preparations for radioligand binding assays using Scintillation proximity Assay (SPA) technique. Each cell line is cultured independently in F-12K Nutrient Mixture containing 10% of Fetal Bovine Serum (FBS) supplemented with 450 μg/ml G-418. When cells are at 70-80% of confluence 3 mM Na Butyrate was added to the cell culture medium. After 24 h of incubation, the culture medium was removed and the cells detached with Versene (DAT) or by scraping (NET and SERT). Cell suspension is centrifuged at 41,000 g for 10 minutes at 4° C. The resultant pellets are re-suspended in 15 volumes of Ice-cold buffer (20 mM HEPES, 145 mM NaCl, 5 mM KCl, pH7.3), homogenized using an Ultra Turrax homogeniser and centrifuged as before. The resultant membrane pellets are re-suspended in up to 15 volume of ice-cold buffer, incubated for 20 minutes at 37-C and centrifuged as before at 41,000 g. The final membrane pellets are re-suspended into 5-10 volumes of ice-cold buffer, dispensed into 0.5 ml aliquots and stored at −80° C. until use. Protein concentration for each preparation is determined using Bio-Rad Protein Assay kit.
(§5) The affinity of the compounds of the invention to the human DAT or NET or SERT transporters is assessed by using the [^3H]WIN-35,428 or [^3H]nisoxetine or [^3H]citalopram binding assays in recombinant human DAT, NET and SERT membranes with the SPA technology. The final assay volume is 50 μL in 384 well plates.
(§6) Briefly, 0.5 μL of test compound in neat DMSO or 0.5 μL of DMSO for total binding (TB) or 0.5 μL of indatraline 1 mM (10 μM final concentration) for non specific binding (NSB) are added to the assay plate. 50 μL of the SPA mixture is added to each well, containing: 30 μg/mL or 10 μg/mL or 25 μg/mL DAT, NET, SERT membranes, respectively; 5 nM [^3H]WIN-35,428 or 5 nM [^3H]nisoxetine or 1 nM [^3H]citalopram, for DAT, NET, SERT assay, respectively; 2.5 mg/mL or 1 mg/mL or 4 mg/mL WGA-PVT SPA beads (PerkinElmer RPNQ0001, for DAT, NET, SERT assay, respectively. All components are added to Assay Buffer (20 mM HEPES pH 7.4, 145 mM NaCl, 5 mM KCl, 0.01% Pluronic F-127). 0.02% BSA was used for DAT binding only. Plates are sealed with Topseal A and centrifuged 1 min, 800 rpm. Plates are loaded into a 1450 Microbeta TriLux (Perkin-Elmer) plate reader and the radioactivity counted after at least 4 hrs or overnight incubation at room temperature. Curve fitting and IC50 estimations are performed using a four parameter model in XLfit (IDBS, Guilford, UK) for Microdoft Excel (Microsoft, Redmond, Wash.).

[2] = molecular target: human ERG potassium channel (hERG) (Homo sapiens (Human), UniProt Q12809); test: hERG tail current recording, Rapid ICE automated patch-clamp; type: cell-based; conditions: HEK293 cells stably transfected with hERG
Protocol: Measure of the Effect on hERG Channel by Tail Current Recording Using In Vitro Rapid ICE™
The potency of the compounds of the invention in inhibiting human ERG potassium channel (hERG) tail current is assessed in a recombinant HEK293 cell line stably transfected with hERG cDNA using Rapid ICE™ (Rapid Ion Channel Electrophysiology) assay. Rapid ICE™ is an automated patch-clamp assay utilizing the PatchXpress 7000A system (Molecular Devices Corporation) or the QPatch HTX system (Sophion Bioscience A/S).
Briefly cells are cultivated for 24 to 72 hours before recordings in minimum essential medium supplemented with 10% FBS, 1% non-essential amino acids, 1% sodium pyruvate, 2 mM L-glutamine. The day of the experiment cells are detached with TrypLE and prepared to be loaded on the instrument. For PatchXpress cells are finally resuspended in 150 μl of Extracellular Buffer whereas for QPatch cells are resuspended in 7 ml Serum-Free Media containing 25 mM Hepes and Soybean trypsin inhibitor and immediately placed in the cell storage tank of the machine. The composition of the Extracellular Buffer is (mM): NaCl 137; KCl 4; CaCl2 1.8; MgCl2 1.0; D-glucose 10; N 2 hydroxyethylpiperazine-N′-2-ethanesulfonic acid (HEPES) 10; pH 7.4 with 1 M NaOH. The composition of the pipette solution is (mM): KCl 130; MgCl2 1.0; Ethylene glycol-bis(β-aminoethyl ether)-N,N,N′,N′-tetraacetic acid (EGTA) 5; MgATP 5; HEPES 10; pH 7.2 with 1 M KOH. The voltage protocol includes the following steps: step from −80 mV to −50 mV for 200 ms, +20 mV for 4.8 s, step to −50 mV for 5 s then step to the holding potential of −80 mV. Compounds of the invention are dissolved in DMSO and diluted in Extracellular Buffer to achieve final test concentrations (0.1, 1 and 10 μM) in 0.1% DMSO. The voltage protocol is run and recorded continuously during the experiment. The vehicle, corresponding to 0.1% DMSO in Extracellular Buffer, is then applied for 3 min followed by the test substance in triplicate. The standard combined exposure time is 5 min. The average of tail current amplitude values recorded from 4 sequential voltage pulses is used to calculate for each cell the effect of the test substance by calculating the residual current (% control) compared with vehicle pre-treatment. Data are reported as % inhibition for each concentration tested and IC50 values are estimated using DataXpress or QPatch software. At least two cells are tested, more if results diverge.

[3] = molecular target: human dopamine transporter (DAT) (Homo sapiens (Human), UniProt Q01959); test: Scintillation Proximity Assay (SPA) competition binding, human DAT; conditions: recombinant hDAT-CHO membranes, [3H]WIN-35,428
Description: as §1
In the context of the present invention pKi values (corresponding to the antilogarithm of Ki) are used instead of Ki; pKi are only estimated to be accurate to about 0.3 log unit.
as §3, §4, §5, §6

[4] = molecular target: human serotonin transporter (SERT) (Homo sapiens (Human), UniProt P31645); test: Scintillation Proximity Assay (SPA) competition binding, human SERT; conditions: recombinant hSERT-CHO membranes, [3H]citalopram
Description: as §1, §2, §3, §4, §5, §6

Sequence of human ERG potassium channel (hERG) (Q12809 whole entry): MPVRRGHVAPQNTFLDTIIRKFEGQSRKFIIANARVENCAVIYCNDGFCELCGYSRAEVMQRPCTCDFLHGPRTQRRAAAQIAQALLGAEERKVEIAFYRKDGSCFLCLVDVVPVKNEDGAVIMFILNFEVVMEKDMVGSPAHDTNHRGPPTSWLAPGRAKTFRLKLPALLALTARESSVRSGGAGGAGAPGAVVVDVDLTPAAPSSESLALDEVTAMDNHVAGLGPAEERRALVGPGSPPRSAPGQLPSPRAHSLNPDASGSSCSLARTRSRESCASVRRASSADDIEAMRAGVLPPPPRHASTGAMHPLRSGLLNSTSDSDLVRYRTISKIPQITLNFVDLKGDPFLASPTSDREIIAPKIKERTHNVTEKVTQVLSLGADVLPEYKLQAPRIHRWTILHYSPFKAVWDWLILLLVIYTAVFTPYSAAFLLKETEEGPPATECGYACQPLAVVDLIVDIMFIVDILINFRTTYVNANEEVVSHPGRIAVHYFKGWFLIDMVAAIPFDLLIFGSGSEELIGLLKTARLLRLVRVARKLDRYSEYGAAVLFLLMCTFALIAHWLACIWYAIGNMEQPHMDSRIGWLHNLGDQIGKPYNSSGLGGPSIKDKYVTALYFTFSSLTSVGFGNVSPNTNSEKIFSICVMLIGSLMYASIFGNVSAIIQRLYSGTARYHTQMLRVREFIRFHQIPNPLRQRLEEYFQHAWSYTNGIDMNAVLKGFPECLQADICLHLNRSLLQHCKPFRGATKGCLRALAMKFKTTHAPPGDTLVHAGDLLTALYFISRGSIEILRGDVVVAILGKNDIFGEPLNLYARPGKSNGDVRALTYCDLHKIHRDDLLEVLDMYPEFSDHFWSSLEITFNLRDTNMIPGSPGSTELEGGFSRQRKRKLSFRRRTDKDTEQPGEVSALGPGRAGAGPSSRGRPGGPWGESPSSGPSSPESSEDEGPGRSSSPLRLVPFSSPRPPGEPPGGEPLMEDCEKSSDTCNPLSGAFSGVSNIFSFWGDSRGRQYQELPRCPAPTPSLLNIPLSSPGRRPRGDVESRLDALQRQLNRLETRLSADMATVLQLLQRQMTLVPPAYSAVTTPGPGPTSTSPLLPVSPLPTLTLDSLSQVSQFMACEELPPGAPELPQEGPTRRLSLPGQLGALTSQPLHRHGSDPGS
Sequence of human serotonin transporter (SERT) (P31645 whole entry): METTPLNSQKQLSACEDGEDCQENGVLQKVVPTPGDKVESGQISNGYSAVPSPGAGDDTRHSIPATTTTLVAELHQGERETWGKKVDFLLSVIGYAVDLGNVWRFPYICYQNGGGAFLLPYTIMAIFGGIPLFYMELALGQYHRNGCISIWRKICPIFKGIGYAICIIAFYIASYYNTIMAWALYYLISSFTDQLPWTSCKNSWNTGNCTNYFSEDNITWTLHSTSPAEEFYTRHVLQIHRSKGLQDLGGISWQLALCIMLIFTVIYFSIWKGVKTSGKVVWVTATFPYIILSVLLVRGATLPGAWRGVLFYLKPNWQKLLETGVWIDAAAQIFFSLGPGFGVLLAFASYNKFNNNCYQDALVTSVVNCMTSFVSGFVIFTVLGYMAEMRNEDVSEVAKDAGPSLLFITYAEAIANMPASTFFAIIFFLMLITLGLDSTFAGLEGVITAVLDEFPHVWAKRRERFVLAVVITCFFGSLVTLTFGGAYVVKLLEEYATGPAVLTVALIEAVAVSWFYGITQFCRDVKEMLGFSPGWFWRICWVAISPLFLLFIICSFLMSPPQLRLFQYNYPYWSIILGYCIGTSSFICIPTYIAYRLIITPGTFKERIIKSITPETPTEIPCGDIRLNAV
Sequence of human dopamine transporter (DAT) (Q01959 whole entry): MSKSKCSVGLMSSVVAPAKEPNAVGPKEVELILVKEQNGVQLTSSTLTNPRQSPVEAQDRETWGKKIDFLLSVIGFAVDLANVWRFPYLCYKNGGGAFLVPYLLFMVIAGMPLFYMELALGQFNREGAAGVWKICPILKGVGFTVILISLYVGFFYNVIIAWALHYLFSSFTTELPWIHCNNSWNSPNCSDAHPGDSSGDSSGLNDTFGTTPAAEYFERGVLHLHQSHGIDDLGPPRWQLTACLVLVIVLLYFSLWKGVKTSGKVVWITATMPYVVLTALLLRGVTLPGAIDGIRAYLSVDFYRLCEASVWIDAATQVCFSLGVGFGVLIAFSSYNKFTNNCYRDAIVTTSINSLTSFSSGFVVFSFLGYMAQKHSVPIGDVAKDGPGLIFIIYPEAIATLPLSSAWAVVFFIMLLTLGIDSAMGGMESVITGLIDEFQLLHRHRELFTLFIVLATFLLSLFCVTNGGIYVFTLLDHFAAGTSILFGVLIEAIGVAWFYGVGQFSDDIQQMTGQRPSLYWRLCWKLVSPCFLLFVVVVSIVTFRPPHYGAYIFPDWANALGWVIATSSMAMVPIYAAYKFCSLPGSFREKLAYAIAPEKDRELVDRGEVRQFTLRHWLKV
Sequence of human norepinephrine transporter (NET) (P23975 whole entry): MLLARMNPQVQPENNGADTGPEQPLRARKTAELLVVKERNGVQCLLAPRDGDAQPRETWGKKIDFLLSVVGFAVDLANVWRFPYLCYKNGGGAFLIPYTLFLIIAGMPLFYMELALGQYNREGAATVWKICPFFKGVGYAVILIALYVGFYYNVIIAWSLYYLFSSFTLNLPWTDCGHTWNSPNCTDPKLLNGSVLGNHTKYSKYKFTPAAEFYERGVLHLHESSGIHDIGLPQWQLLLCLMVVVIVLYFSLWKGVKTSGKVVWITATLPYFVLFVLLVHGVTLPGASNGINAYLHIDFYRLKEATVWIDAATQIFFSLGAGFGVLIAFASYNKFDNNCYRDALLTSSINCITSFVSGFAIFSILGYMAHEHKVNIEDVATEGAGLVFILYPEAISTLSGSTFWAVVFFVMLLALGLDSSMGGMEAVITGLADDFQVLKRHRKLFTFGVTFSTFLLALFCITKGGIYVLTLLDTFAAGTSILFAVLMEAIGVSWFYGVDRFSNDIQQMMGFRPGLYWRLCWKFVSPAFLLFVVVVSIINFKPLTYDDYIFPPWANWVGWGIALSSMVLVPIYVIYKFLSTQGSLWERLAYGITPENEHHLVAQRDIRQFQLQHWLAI

SMILES	pIC50 NET [1]	pIC50 hERG [2]	pIC50 DAT [3]	pIC50 SERT [4]
Cl.Fc1cccc(Oc2cc(C(F)(F)F)nc(N3CCC4(CCNCC45OCCO5)C3)n2)c1 (centres unmarked) [Example 95, 8-[4-(3-fluorophenoxy)-6-(trifluoromethyl)pyrimidin-2-yl]-1,4-dioxa-8,13-diazadispiro[4.0.4^6.4^5]tetradecane hydrochloride]	6.09	5.6	8.16	6.29
Fc1cccc(Oc2cc(F)c(F)cc2N2CCC3(CCNCC3)C2)c1 [Example 90, 2-[4,5-difluoro-2-(3-fluorophenoxy)phenyl]-2,8-diazaspiro[4.5]decane]	6.85	6.1	8.36	6.31
Fc1cccc(Oc2cc(F)c(F)cc2N2CCC3(CNCCO3)C2)c1 (centres unmarked) [Example 83, 2-[4,5-difluoro-2-(3-fluorophenoxy)phenyl]-6-oxa-2,9-diazaspiro[4.5]decane]	6.76	6.2	7.24	6.40
Cl.Fc1cccc(Oc2cc(C(F)(F)F)cc(N3CCC4(CC3)CNCCO4)n2)c1 [Example 37, 9-[6-(3-fluorophenoxy)-4-(trifluoromethyl)pyridin-2-yl]-1-oxa-4,9-diazaspiro[5.5]undecane hydrochloride]	7.07	5.9	8.86	5.33
Fc1cccc(Oc2cc(F)c(F)cc2N2CCC3(CCCNC3)CC2)c1 [Example 79, 9-[4,5-difluoro-2-(3-fluorophenoxy)phenyl]-2,9-diazaspiro[5.5]undecane]	6.31	6.1	7.86	6.49
Cc1cc(Oc2cccc(F)c2)nc(N2CCC3(CC2)CNCCO3)n1.Cl [Example 44, 9-[4-(3-fluorophenoxy)-6-methylpyrimidin-2-yl]-1-oxa-4,9-diazaspiro[5.5]undecane hydrochloride]	6.65	6.0	8.29	4.80
Cl.Fc1ccccc1Oc1cc(C(F)(F)F)nc(N2CCC3(CC2)CNCCO3)n1 [Example 57, 9-[4-(2-fluorophenoxy)-6-(trifluoromethyl)pyrimidin-2-yl]-1-oxa-4,9-diazaspiro[5.5]undecane hydrochloride]	5.94	5.7	7.89	6.18
Cl.N#Cc1cc(Oc2cccc(F)c2)nc(N2CCC3(CC2)CNCCO3)n1 [Example 62, 6-(3-fluorophenoxy)-2-{1-oxa-4,9-diazaspiro[5.5]undecan-9-yl}pyrimidine-4-carbonitrile hydrochloride]	6.36	6.5	8.01	5.83
COc1cc(Cc2ccccc2)nc(N2CCC3(CC2)CNCCO3)n1.Cl [Example 61, 9-(4-benzyl-6-methoxypyrimidin-2-yl)-1-oxa-4,9-diazaspiro[5.5]undecane hydrochloride]	5.29		6.67	4.89
CN1CCCNCC12CCN(c1nc(Oc3cccc(F)c3)cc(C(F)(F)F)n1)CC2 [Example 77, 3-[4-(3-fluorophenoxy)-6-(trifluoromethyl)pyrimidin-2-yl]-7-methyl-3,7,11-triazaspiro[5.6]dodecane]	6.33		8.08	5.30
Fc1cccc(Oc2cc(F)c(F)cc2N2CCCC3(CCNCC3)C2)c1 [Example 80, 2-[4,5-difluoro-2-(3-fluorophenoxy)phenyl]-2,9-diazaspiro[5.5]undecane]	5.84		6.64	6.49
c1ccc(Oc2ccccc2N2CCC3(CC2)CNCCO3)cc1 [Example 3, 9-(2-phenoxyphenyl)-1-oxa-4,9-diazaspiro[5.5]undecane]	5.28		6.09	5.02
